Experimental data reported in publication PMC5826336 (Frontiers in Synaptic Neuroscience, 2018).
Like-named read-outs stand apart in the source and are kept apart here.

Experiments:
Type in all cases: cell-based
human D2R long isoform [1] = biological target: T1, human D2R long isoform (Homo sapiens, UniProt P14416); test: HitHunter cAMP assay, inhibition of forskolin-stimulated cAMP, agonist mode
T1 construct: gene DRD2; full-length long isoform stably expressed in CHO-K1 cells from DiscoverX, HitHunter cAMP assay
Description: HitHunter cAMP assay, inhibition of forskolin-stimulated cAMP, agonist mode on human D2R long isoform

[2] = biological target: T2, D2R long isoform (PathHunter) (Homo sapiens, UniProt P14416); test: PathHunter beta-arrestin recruitment, agonist mode
T2 construct: gene DRD2; long isoform in CHO-K1 PathHunter cells (DiscoverX), beta-galactosidase enzyme-fragment complementation with beta-arrestin; reporter tags not detailed
Description: PathHunter beta-arrestin recruitment, agonist mode on D2R long isoform (PathHunter)

human D2R long isoform [3] = biological target: T1, human D2R long isoform; test: antagonism of D2R cAMP and beta-arrestin signaling (data not shown); details: CHO-K1
[4] = read-out: cAMP inhibition assay / EC50 (μM ± SEM)
[5] = read-out: cAMP inhibition assay / EC50 (μM ± S.E.M.)

T1 sequence (P14416 whole entry, canonical isoform): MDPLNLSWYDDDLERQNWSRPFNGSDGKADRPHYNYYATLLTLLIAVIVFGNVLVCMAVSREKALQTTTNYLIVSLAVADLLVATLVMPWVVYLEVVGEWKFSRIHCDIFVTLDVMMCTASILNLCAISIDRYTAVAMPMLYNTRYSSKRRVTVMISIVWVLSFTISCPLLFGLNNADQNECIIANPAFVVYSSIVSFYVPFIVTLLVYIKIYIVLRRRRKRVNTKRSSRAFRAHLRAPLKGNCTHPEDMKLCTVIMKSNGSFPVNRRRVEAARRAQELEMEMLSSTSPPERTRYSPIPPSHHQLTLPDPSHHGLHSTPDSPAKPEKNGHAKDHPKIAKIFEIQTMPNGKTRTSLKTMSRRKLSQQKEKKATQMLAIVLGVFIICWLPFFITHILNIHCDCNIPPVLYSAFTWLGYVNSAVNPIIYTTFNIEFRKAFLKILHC
T2 sequence (P14416 whole entry, the tested form may be a part, canonical isoform): as the sequence (P14416 whole entry, canonical isoform) above

Row | Compound | EC50 (human D2R long isoform [1]; [4]) [µM] | EC50 [2] [µM] | EC50 (human D2R long isoform [1]; [5]) [µM] | antagonism of D2R cAMP and beta-arrestin signaling (data not shown) (human D2R long isoform [3])
1 | Oc1c(CN2CCN(c3ccccn3)CC2)cc(Cl)c2cccnc12 [compound 1, MLS1547] | 2.2 ± 0.6 | – | – | –
2 | Oc1c(CN2CCN(c3ccccn3)CC2)ccc2cccnc12 [compound 2] | 0.3 ± 0.09 | 0.9 ± 0.3 | – | –
3 | Oc1c(CN2CCN(c3ccccn3)CC2)cc(Br)c2cccnc12 [compound 3] | 7.9 ± 2.1 | – | – | –
4 | COc1c(CN2CCN(c3ccccn3)CC2)cc(Cl)c2cccnc12 [compound 4] | 13.4 ± 11.7 | – | – | –
5 | Clc1c(CN2CCN(c3ccccn3)CC2)ccc2cccnc12 [compound 7] | 6.6 ± 5.5 | 7.3 ± 1.8 | – | –
6 | c1ccc(N2CCN(Cc3cccc4ccccc34)CC2)nc1 [compound 12] | 0.7 ± 0.7 | – | – | –
7 | Oc1c(CN2CCN(c3cnccn3)CC2)cc(Cl)c2cccnc12 [compound 18] | – | – | 3.5 ± 3.4 | –
8 | Oc1c(CN2CCN(c3ncccn3)CC2)cc(Cl)c2cccnc12 [compound 19] | – | 0.5 ± 0.3 | 0.7 ± 0.2 | –
9 | Oc1c(CN2CCN(c3ccccc3)CC2)cc(Cl)c2cccnc12 [compound 23] | – | – | 2.8 ± 1.2 | –
10 | Oc1c(CN2CCN(C3CCCCC3)CC2)cc(Cl)c2cccnc12 [compound 24] | – | – | – | compounds with cyclohexane substituents retained binding affinity for the D2R
11 | c1cncc(N2CCN(Cc3ccc4cc[nH]c4c3)CC2)c1 [compound 25] | – | > 39 | – | –
12 | c1cncc(N2CCN(Cc3cccc4ccccc34)CC2)c1 [compound 28] | – | 7.7 ± 0.3 | 13.3 ± 8.6 | –
13 | c1ccc2cc(CN3CCN(c4cnccn4)CC3)ccc2c1 [compound 37] | – | 24.8 ± 15.5 | – | –
14 | c1ccc2c(CN3CCN(c4cnccn4)CC3)cccc2c1 [compound 38] | – | – | 27.3 ± 18.2 | –
15 | c1cnc(N2CCN(Cc3ccc4cc[nH]c4c3)CC2)nc1 [compound 43] | – | 0.1 ± 0.01 | 0.04 ± 0.01 | –
16 | c1cnc(N2CCN(Cc3cc4ccccc4[nH]3)CC2)nc1 [compound 44] | – | 1 ± 0.2 | 0.6 ± 0.5 | –
17 | c1cnc(N2CCN(Cc3ccc4ccccc4c3)CC2)nc1 [compound 45] | – | 2.6 ± 1.1 | 0.8 ± 0.1 | –
18 | c1cnc(N2CCN(Cc3cccc4ccccc34)CC2)nc1 [compound 46] | – | 14.5 ± 1.5 | 8.5 ± 4 | –
19 | c1cc2ccc(CN3CCN(C4CCCCC4)CC3)cc2[nH]1 [compound 50] | – | – | – | compounds with cyclohexane substituents retained binding affinity for the D2R
